What all share (assay type): cell-based, human
For assay [1], the system named is HRH2/cAMP/PKA axis. Description: PLS assessment upon perturbation of the HRH2/cAMP/PKA axis in Huh7.5.1dif cells. To be noted: histamine 10 μM + nizatidine 10 μM, 48 hours. How it is done:
Histamine, 8-CPT, cAMP and H89 Treatment. Huh7.5.1^dif cells were cultured in DMEM containing 1% FBS and 1% DMSO and incubated with histamine (10 μM) or histamine+nizatidine (10 μM) for 48 hours. Fresh medium containing histamine was replenished every 12 hours. For 8-CPT cAMP and H89, Huh7.5.1^dif cells cultured in DMEM 1% DMSO and 1% FBS were incubated with 8-CPT cAMP (100 μM), H89 (1 μM) or DMSO as a control for 48 hours. Fresh medium containing 8-CPT cAMP was replenished every 12 hours.
Transcriptomic Analysis and PLS Calculation. Gene expression profiling and the 32 gene PLS 32 profiling were performed using 250-500 ng total RNA by using either nCounter Digital Analyzer system (NanoString) or the HumanHT-12 beadarray (Illumina) for the time-course experiments. PLS gene expression was normalized according to 6 housekeeping gene expression using GenePattern genomic analysis toolkits (Hoshida, PLOS ONE, 2010, 5: e15543; Peck et al., Genome Biol., 2006, 7: R61; Reich et al., Nature Genet., 2006, 38: 500-501). Induction or suppression of PLS risk signature was determined as previously reported by using Gene Set Enrichment Analysis (GSEA), implemented in GenePattern genomic analysis toolkits (Hoshida, PLOS ONE, 2010, 5: e15543; Peck et al., Genome Biol., 2006, 7: R61; Reich et al., Nature Genet., 2006, 38: 500-501). PLS was always determined by using CTRL cells as references. Results are presented as simplified heatmaps showing the classification of PLS global status as poor or good prognosis and the significance of induction/suppression of PLS genes (log 10 of false discovery rate (FDR) values). For each experiment, heatmaps show: in the upper part: the classification of PLS global status as poor (orange) or good (green) prognosis, and in the bottom part: the significance of induction (red) or suppression (blue) of PLS poor- or good-prognosis genes. Global status corresponds to the difference between low risk- and high risk-gene expression. The statistic tests, normalized enrichment score (NES) and FDR values are provided for each PLS experiment (poor- and good-prognosis genes variation and global status) in the Source Data file.

Assay [2] has as its system liver macrophages. As to the kind of experiment: scRNA-Seq of CD45+ leucocytes from patient liver tissue treated with nizatidine. On the procedure:
Single-Cell RNA-Seq Analyses of Patient Liver Tissues. Human cells were dissociated from HCC patient liver tissues. Fresh or cryopreserved tissues were minced into 2 to 3 mm pieces and incubated with collagenase (0.5 mg/mL) for 30 minutes at 37° C. Digested tissues were filtered through a sterile nylon mesh to separate the dispersed cells from tissue fragments and washed with Hanks' Balanced Salt Solution (HBSS). Cells were then centrifuged at 600×g for 5 minutes at 4° C. Leucocytes CD45^+ cells were separated from other cell types by flow cytometry using SH800 cell sorter (Sony). Briefly, 500,000 cells per condition were stained with human CD45 specific antibody. Living cells were selected using Zombie green staining according to manufacturer's instructions. Data were acquired using the Sony Cell Sorter Software. Cells were then cultured in MammoCultTM medium and treated with nizatidine 50 μM or DMSO vehicle control. Two days after treatment, single cells were sorted into 384 well cell capture plates (Single Cell Discovery, website: www.scdiscoveries.com) using SH800 cell sorter (Sony). The plates contain mineral oil and droplets of poly-A primers, containing a cell-specific barcode and a unique molecular identifier (UMI), enabling to distinguish the well-specific (and cell-specific) mRNA molecules. scRNA-Seq was performed by Single-Cell Discoveries B.V. using SORT-seq protocol (Muraro et al., Pancreas Cell Syst., 2016, 3: 385-394, e3). Single Cell RNA-Seq Profiling of Human Cells. scRNA-Seq analysis of patient-derived liver tissue was assessed using R version 3.5.3 with package “[…]” for clusterization, cluster analysis and DEG calculation, as previously described (Aizarani et al., Nature; 2019, 572: 199-204).

Assay [3] deals with tumor associated macrophages (TAMs). Description: IL6 expression in M1-polarized tumor associated macrophages from patient HCCs. To be noted: patient-derived tumor macrophages. How it is done: FIG. 5. Effect of Nizatidine and HRH2 KO on Cytokine Expression in a Cell Culture Model for M1 Macrophages. (A) Representative picture of differentiated macrophages. To generate macrophage-like cells (MO), THP-1 cells were treated with PMA for 24 hours. To generate M1-polarized THP-1 macrophages, THP-1 cells were treated with PMA plus LPS and IFNγ. M1-polarized THP-1 were treated with nizatidine for 48 hours. (B) Gene expression of different cytokines was measured by qRT-PCR. Results are expressed as mean+s.e.m from 3 independent experiments performed in triplicate. * denotes p<0.05; ** denotes p<0.01; *** denotes p<0.001. (C) Representative picture of M1 differentiated patient-derived Kupffer cells. To generate M1-polarized macrophages, patient Kupffer cells were treated with LPS and IFNγ. (D) Gene expression of different cytokines was measured by qRT-PCR. Results are expressed as mean+s.d. from one experiment performed in duplicate. (E) IL6 expression in M1-polarized tumor associated macrophages (TAMs) isolated from different patient HCCs and treated with nizatidine. Results are expressed as mean+/−SD from one experiment performed in triplicate or quadruplicate. […] KO efficacy was assessed at genetic level by T7 endonuclease assay. […] Right: Pro-inflammatory cytokines and markers expression were analyzed by qRT-PCR (mean+/−SD n=3, one representative experiment out of two is shown).

Where [4] appears, read: GSEA, nizatidine-treated vs CTRL macrophages.
The mark [5] stands for this setting: gene-level analysis in macrophages.
Setting [6] is: nizatidine 50 μM, two days, scRNA-Seq.

With `CNC(=C[N+](=O)[O-])NCCSCc1csc(CN(C)C)n1` [Nizatidine, N-[2-[[[2-[(dimethylamino)methyl]-4-thizaolyl]methyl]thio]ethyl]-N′-methyl-2-nitro-1,1-ethene-diamine], in assay [1], the “histamine-induced PLS poor-prognosis status” value is “reversal”. Also, in assay [2] (setting [4]), the “IFNγ response and antigen processing and presentation” value is “augmenting IFNγ response and antigen processing and presentation”; the c-Myc pathway expression entry is given as “strong suppression of the c-Myc pathway expression”; the “immunoregulatory macrophage (M2) signature” value is “only partially induces the immunoregulatory macrophage (M2) signature”; the “pro-inflammatory and pro-fibrogenic responses (TNFα, IL2 and IL6 signaling pathways)” value is “suppresses pro-inflammatory and pro-fibrogenic responses”. Also, in assay [2] (setting [4]), the “pro-inflammatory macrophage (M1) signature” value is on record as “suppresses the pro-inflammatory macrophage (M1) signature”. Further, in assay [2] (setting [5]), the “major histocompatibility complex (MHC) molecules expression” value is “increase in major histocompatibility complex (MHC) molecules expression”; the “neutrophil/monocyte chemoattractant and pro-inflammatory cytokine expression (CXCL5, CCL2, CCL5)” value is “decrease in neutrophil/monocyte chemoattractant and pro-inflammatory cytokine expression”; the “pro-fibrotic/tumorigenic soluble factor expression (IL6, IL1b, PDGF, MMP9, TNFα)” value is reported as “suppression of pro-fibrotic/tumorigenic soluble factor expression”. Also, in assay [2] (setting [6]), the “Siglec-10 expression in macrophages” value is given as “decreases expression” and the “macrophage CLEC5A expression” value was “decreased macrophage CLEC5A expression”. For the same molecule, the “pro-inflammatory cytokine expression (IL6)” value in assay [3] was “direct effect”.

The values above are taken from patent publication US20230349922A1, “H2 Blockers Targeting Liver Macrophages for the Prevention and Treatment of Liver Disease and Cancer” (Université de Strasbourg, priority 2020, published 2023).
